Assay results: ChEMBL document CHEMBL5604063, “ASAP - DENV-2 NS2B-NS3 protease fluorescence dose response” (2024)
Several values for one entry are separate records, joined by “and”; a condition that tells them apart may be missing. Equal entries are not always repeated.

Tests used:
Genome polyprotein [1] = target: T1, Genome polyprotein (dengue virus type 2, UniProt P29990); assay type: functional, Thailand/16681/1984
Genome polyprotein [2] = target: T1, Genome polyprotein; assay type: functional, Thailand/16681/1984; remark: listed apart in the source

T1 sequence (P29990 1346-1475 limits assumed): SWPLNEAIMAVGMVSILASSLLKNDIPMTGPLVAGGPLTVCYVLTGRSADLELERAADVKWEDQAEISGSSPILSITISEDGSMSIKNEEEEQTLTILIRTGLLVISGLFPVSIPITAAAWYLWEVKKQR
T1 sequence (P29990 1476-2093 limits assumed): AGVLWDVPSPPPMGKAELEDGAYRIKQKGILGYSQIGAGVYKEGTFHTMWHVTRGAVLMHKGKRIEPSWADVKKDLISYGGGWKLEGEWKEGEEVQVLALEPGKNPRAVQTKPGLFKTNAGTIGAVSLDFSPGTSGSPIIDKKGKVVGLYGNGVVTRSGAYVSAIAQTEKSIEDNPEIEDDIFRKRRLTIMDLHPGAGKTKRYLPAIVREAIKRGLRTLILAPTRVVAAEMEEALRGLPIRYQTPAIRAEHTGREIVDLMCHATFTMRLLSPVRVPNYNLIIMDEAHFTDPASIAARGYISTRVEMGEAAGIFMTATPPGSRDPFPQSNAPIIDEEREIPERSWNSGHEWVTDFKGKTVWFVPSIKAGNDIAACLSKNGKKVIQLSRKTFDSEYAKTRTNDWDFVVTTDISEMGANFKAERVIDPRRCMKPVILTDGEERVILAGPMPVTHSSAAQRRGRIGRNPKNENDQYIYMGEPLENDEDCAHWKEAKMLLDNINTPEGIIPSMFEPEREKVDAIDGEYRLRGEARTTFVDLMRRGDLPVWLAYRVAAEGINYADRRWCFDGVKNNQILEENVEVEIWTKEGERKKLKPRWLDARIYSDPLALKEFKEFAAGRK

SMILES	IC50 (Genome polyprotein [1])	IC50 (Genome polyprotein [2])
CC(C)c1noc2nc(C3CC3)cc(C(=O)Nc3cccc(CN)c3)c12	> 100 µM	> 99.5 µM
NCc1ccc(NS(=O)(=O)c2ccc(Oc3ccccc3Cl)cc2)cc1	> 100 µM	> 99.5 µM
CC(C)c1ncc(OC2CCC2)c(C(=O)Nc2cccc(CN)c2)n1	> 100 µM	> 99.5 µM
Cn1nc2c(c1NC(=O)c1cc(Cl)cc(NC(=O)OCc3ccccc3)c1)CCNC2	> 100 µM	> 99.5 µM
NCc1cccc(NC(=O)c2ccc(F)c(NC(=O)OCc3ccccc3)c2F)c1	> 100 µM	> 99.5 µM
Cc1c(CN)cccc1NS(=O)(=O)c1ccc(Oc2ccccc2Cl)cc1	> 100 µM	> 99.5 µM
N[C@H]1CCc2ncc(NS(=O)(=O)c3ccc(Oc4ccccc4Cl)cc3)cc2C1	> 100 µM	> 99.5 µM
O=C(Nc1cc(Cl)cc(C(=O)Nc2cccc([C@H]3CCCCN3)c2)c1)OCc1ccccc1	> 100 µM	> 99.5 µM
NCc1cccc(NC(=O)[C@@H](NC(=O)OCc2ccccc2)C2CCN(C(=O)c3cscn3)CC2)c1	> 100 µM	> 99.5 µM
Cc1cc(=O)c(C(=O)Nc2cccc(CN)c2)nn1-c1ccccc1C(F)(F)F	> 100 µM	> 99.5 µM
C[C@H]1CCN1C(=O)Cn1ccnc(N2CC[C@H](CO)C2)c1=O	> 100 µM	> 99.5 µM
NCc1ccncc1NS(=O)(=O)c1ccc(Oc2ccccc2Cl)cc1	> 100 µM	37.1 µM
NCC12CC(NC(=O)c3cc(Cl)cc(NC(=O)OCc4ccccc4)c3)(CCO1)C2	> 100 µM	> 99.5 µM
COc1c(Cl)cc(Cl)cc1C(=O)Nc1cccc(CN)c1	> 100 µM	> 99.5 µM
NCc1cccc(NC(=O)c2cc(C3CC3)nc3c(Cl)cnn23)c1	> 100 µM	> 99.5 µM
O=C(Cn1ccnc(N2CC[C@H](CO)C2)c1=O)N[C@H]1CCOC1	> 100 µM	> 99.5 µM
CCCOc1ccc2[nH]cc(CN3CCC(c4cscn4)CC3)c2c1	> 100 µM	> 99.5 µM
NCc1cccc(NC(=O)c2cccn3cc(CN4CCCC4)nc23)c1	> 100 µM	> 99.5 µM
CC(C)Oc1cc(CN)ccc1NS(=O)(=O)c1ccc(Oc2ccccc2Cl)cc1	> 100 µM	> 99.5 µM
NCc1cccc(NC(=O)Cc2cccc(Oc3ccncc3Br)c2)c1	> 100 µM	> 99.5 µM
O=C(Nc1cc(Cl)cc(C(=O)Nc2ccnc(OC3CNC3)c2)c1)OCc1ccccc1	> 100 µM	> 99.5 µM

SMILES	IC50 (Genome polyprotein [1])	IC50 (Genome polyprotein [2])
NCc1cccc(/C=C/c2cc(Cl)cc(NC(=O)OCc3ccccc3)c2)c1	> 100 µM	> 99.5 µM
CN1CCC[C@H]1COc1ccc([C@@H](NC(=O)OCc2ccccc2)C(=O)Nc2cccc(CN)c2)cc1	> 100 µM	> 99.5 µM
NCc1cccc(NC(=O)c2cccc3c2O[C@H](c2ccccc2)C(=O)N3)c1	> 100 µM	> 99.5 µM
NCc1cccc(NC(=O)c2cc(C(F)(F)F)ccc2SC2CCCC2)c1	> 100 µM	> 99.5 µM
CCOc1cccc(-c2ccc(S(=O)(=O)Nc3cc4c(cc3C(=O)O)CCC4)cc2)c1	11.5 µM	8.67 µM
Cc1ccc(Sc2ncccc2C(=O)Nc2cccc(CN)c2)cc1C	> 100 µM	> 99.5 µM
C=CC[C@]1(NC(=O)c2cc(Cl)cc(NC(=O)OCc3ccccc3)c2)CCNC1	> 100 µM	> 99.5 µM
O=C(Nc1cc(Cl)cc(C(=O)NC[C@@]23CN[C@H](CCO2)C3)c1)OCc1ccccc1	> 100 µM	> 99.5 µM
NCCCc1ccc(F)c(NC(=O)c2cc(Cl)cc(NC(=O)OCc3ccccc3)c2)c1	91.1 µM	27.8 µM
COCCN(C)C(=O)Cn1ccnc(N2CC[C@@H](CO)C2)c1=O	> 100 µM	> 99.5 µM
NCc1ccc(F)c(NC(=O)c2cc(Cl)cc(NC(=O)OCc3ccccc3)c2)c1	> 100 µM	> 99.5 µM
NCc1cccc(NC(=O)[C@H](NC(=O)OCc2ccccc2)C2CCN(C(=O)Cn3ccnc3)CC2)c1	> 100 µM	> 99.5 µM
CC(C)OC(=O)Nc1cc(Cl)cc(C(=O)Nc2cccc(CN)c2)c1	> 100 µM	> 99.5 µM
CC(C)c1nn(-c2ccccc2)cc1C(=O)Nc1cccc(CN)c1	> 100 µM	> 99.5 µM
NCc1cccc(NC(=O)c2cc(C3CC3)n3nccc3n2)c1	> 100 µM	> 99.5 µM
O=C(Nc1cc(Cl)cc(C(=O)NC[C@@H]2CNCCC2(F)F)c1)OCc1ccccc1	> 100 µM	> 99.5 µM
CC[C@H](C(=O)Nc1cccc(CN)c1)n1cc(Br)c(C(F)(F)F)n1	> 100 µM	> 99.5 µM
CC(C)(C)OC(=O)NCc1cc(Cl)cc(C(=O)O)c1	> 100 µM	> 99.5 µM
O=C1Nc2ccccc2[C@H]1N1CCC(c2nc3ccccc3s2)CC1	> 100 µM	> 99.5 µM
O=C(Nc1cc(Cl)cc(C(=O)NCC[C@H]2COCCN2)c1)OCc1ccccc1	> 100 µM	> 99.5 µM
CCc1[nH]c2ccccc2c1CN1CCC(c2cscn2)CC1	> 100 µM	> 99.5 µM

SMILES	IC50 (Genome polyprotein [1])	IC50 (Genome polyprotein [2])
O=C(Nc1cc(Cl)cc(C(=O)NC[C@H]2CC3(CNC3)CO2)c1)OCc1ccccc1	> 100 µM	> 99.5 µM
Cn1nc(C2CC2)c2c(C(=O)Nc3cccc(CN)c3)cc(C3CC3)nc21	> 100 µM	> 99.5 µM
COCCCC(=O)N1CCC([C@H](NC(=O)OCc2ccccc2)C(=O)Nc2cccc(CN)c2)CC1	> 100 µM	> 99.5 µM
NCc1cccc(NC(=O)c2cc(C3CC3)nn2-c2ccccc2)c1	> 100 µM	> 99.5 µM
NCc1ccc(CNC(=O)c2cc(Cl)cc(NC(=O)OCc3ccccc3)c2)c(F)c1	> 100 µM	> 99.5 µM
CCC1(NC(=O)Cn2ccnc(N3CC[C@@H](CO)C3)c2=O)CC1	> 100 µM	> 99.5 µM
CCCn1nc(C)c2c(C(=O)Nc3cccc(CN)c3)cc(C)nc21	> 100 µM	> 99.5 µM
CCC1CN(C(=O)Cn2ccnc(N3CC[C@@H](CO)C3)c2=O)C1	> 100 µM	> 99.5 µM
O=C(Nc1cc(Cl)cc(C(=O)NC[C@@]23CC[C@H](CNC2)C3)c1)OCc1ccccc1	> 100 µM	> 99.5 µM
NC[C@H]1C[C@](F)(CNC(=O)c2cc(Cl)cc(NC(=O)OCc3ccccc3)c2)C1	> 100 µM	> 99.5 µM
Cc1ccc(S(=O)(=O)N2CCC([C@@H](NC(=O)OCc3ccccc3)C(=O)Nc3cccc(CN)c3)CC2)c(C)c1	> 100 µM	> 99.5 µM
NC[C@]12CC[C@](NC(=O)c3cc(Cl)cc(NC(=O)OCc4ccccc4)c3)(CO1)C2	> 100 µM	> 99.5 µM
Cc1ccc(C(=O)Nc2cccc(CN)c2)cc1NC(=O)Cc1ccncc1	> 100 µM	> 99.5 µM
O=C(Nc1cc(Cl)cc(C(=O)NC[C@H]2CCNC3(CC3)C2)c1)OCc1ccccc1	> 100 µM	> 99.5 µM
c1cncc(-c2cccc(NCc3c[nH]c4ccccc34)c2)c1	> 100 µM	> 99.5 µM
Cc1ncc(COc2ccc([C@@H](NC(=O)OCc3ccccc3)C(=O)Nc3cccc(CN)c3)cc2)o1	> 100 µM	> 99.5 µM
O=C(Nc1cc(Cl)cc(C(=O)N[C@@]23CCCCC[C@@H]2NCC3)c1)OCc1ccccc1	> 100 µM	> 99.5 µM
N[C@H]1CC[C@H](NC(=O)c2cc(Cl)cc(NC(=O)OCc3ccccc3)c2)C1	> 100 µM	> 99.5 µM
CCCC(=O)Nc1cc(Cl)cc(C(=O)Nc2cccc(CN)c2)c1	> 100 µM	> 99.5 µM
C[C@H]1CCCCN1C(=O)Cn1ccnc(N2CC[C@@H](CO)C2)c1=O	> 100 µM	> 99.5 µM
NCc1cccc(NC(=O)c2cc(C3CC3)n3nc(C(F)(F)F)cc3n2)c1	> 100 µM	> 99.5 µM

SMILES	IC50 (Genome polyprotein [1])	IC50 (Genome polyprotein [2])
NCc1cccc(NC(=O)c2c(C(F)F)nc3cnccn23)c1	> 100 µM	> 99.5 µM
Cc1nccn1-c1ccc(Cl)cc1C(=O)Nc1cccc(CN)c1	> 100 µM	> 99.5 µM
CNC(=O)CN1CCC([C@@H](NC(=O)OCc2ccccc2)C(=O)Nc2cccc(CN)c2)CC1	> 100 µM	> 99.5 µM
Cc1ccc(NC(=O)c2cc(Cl)ccc2Cl)c(C(=O)Nc2cccc(CN)c2)c1	> 100 µM	> 99.5 µM
O=C(Nc1cc(Cl)cc(C(=O)NC[C@H]2CNC3(CC3)CO2)c1)OCc1ccccc1	> 100 µM	> 99.5 µM
O=c1[nH]c2cccc(N3CCN(Cc4c[nH]c5ccccc45)CC3)c2o1	> 100 µM	> 99.5 µM
O=C(Nc1cc(Cl)cc(C(=O)NC2([C@H]3CCNC3)CC2)c1)OCc1ccccc1	> 100 µM	> 99.5 µM
N[C@@H]1CC[C@H](CCNC(=O)c2cc(Cl)cc(NC(=O)OCc3ccccc3)c2)C1	> 100 µM	> 99.5 µM
Cc1cc(C(=O)Nc2cccc(CN)c2)cc(NC(=O)OCc2ccccc2)c1Cl	> 100 µM	55.4 µM
N[C@@H]1CC[C@H](NC(=O)c2cc(Cl)cc(NC(=O)OCc3ccccc3)c2)C1	> 100 µM	> 99.5 µM
CN(c1ccc(Oc2ccccc2Cl)cc1)S(=O)(=O)c1cc(F)c(Cl)cc1C(=O)O	46.5 µM	65.4 µM
CCc1ccc([C@@H](CC(=O)Nc2cccc(CN)c2)NC(=O)OCc2ccccc2)cc1Br	85.1 µM	16.4 µM and 22.3 µM
Cc1cc(C(=O)Nc2cccc(CN)c2)nc2c(C(C)C)cnn12	> 100 µM	> 99.5 µM
Cc1noc(C)c1Cc1ccc(C(=O)Nc2cccc(CN)c2)o1	> 100 µM	> 99.5 µM
CN1CCC(COc2ccc([C@@H](NC(=O)OCc3ccccc3)C(=O)Nc3cccc(CN)c3)cc2)CC1	> 100 µM	> 99.5 µM
Cn1nc2c(c1NC(=O)c1cc(Cl)cc(NC(=O)OCc3ccccc3)c1)CNCC2	> 100 µM	60.7 µM
NCc1cccc(NC(=O)c2nn(-c3ccc(Cl)c(F)c3)c3c2CCC3)c1	> 100 µM	72.7 µM
CCC[C@H](Oc1ccc(Cl)cc1C)C(=O)Nc1cccc(CN)c1	> 100 µM	> 99.5 µM
CCCN(C)CC(=O)N1CCC([C@@H](NC(=O)OCc2ccccc2)C(=O)Nc2cccc(CN)c2)CC1	> 100 µM	> 99.5 µM
